According to the supplement of paper PMC11451515:

System: SEM cells
Assay: cell viability relative to DMSO control; higher = less cytotoxic
Settings: 48 h
Summary of the method: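 Cells were incubated for 48 h at 37°C before CellTiter-Glo One luminescence was read. The cells were NOMO1 or SEM (500 cells/well) or P12-Ichikawa (1000 cells/well) leukemia cells, adapted for at least four passages in each medium and seeded in 1536-well plates (5 μl). Dosing used library compounds in DMSO applied by pin over 11 threefold points, 47 μM to 0.79 nM. Viability is the per-plate percentage of DMSO wells, with cell-free wells as background.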

[1] = HPLM + 10% dialyzed FBS, 0.000781 µM
[2] = HPLM + 10% dialyzed FBS, 0.00234 µM
[3] = HPLM + 10% dialyzed FBS, 0.00702 µM
[4] = HPLM + 10% dialyzed FBS, 0.0211 µM
[5] = HPLM + 10% dialyzed FBS, 0.0632 µM
[6] = HPLM + 10% dialyzed FBS, 0.19 µM
[7] = HPLM + 10% dialyzed FBS, 0.569 µM
[8] = HPLM + 10% dialyzed FBS, 1.71 µM
[9] = HPLM + 10% dialyzed FBS, 5.12 µM
[10] = HPLM + 10% dialyzed FBS, 15.4 µM
[11] = HPLM + 10% dialyzed FBS, 46.1 µM
[12] = RPMI 5 mM glucose + 10% FBS, 0.000781 µM
[13] = RPMI 5 mM glucose + 10% FBS, 0.00234 µM
[14] = RPMI 5 mM glucose + 10% FBS, 0.00702 µM
[15] = RPMI 5 mM glucose + 10% FBS, 0.0211 µM
[16] = RPMI 5 mM glucose + 10% FBS, 0.0632 µM
[17] = RPMI 5 mM glucose + 10% FBS, 0.19 µM
[18] = RPMI 5 mM glucose + 10% FBS, 0.569 µM
[19] = RPMI 5 mM glucose + 10% FBS, 1.71 µM
[20] = RPMI 5 mM glucose + 10% FBS, 5.12 µM
[21] = RPMI 5 mM glucose + 10% FBS, 15.4 µM
[22] = RPMI 5 mM glucose + 10% FBS, 46.1 µM
[23] = RPMI 5 mM glucose + 10% dialyzed FBS, 0.000781 µM
[24] = RPMI 5 mM glucose + 10% dialyzed FBS, 0.00234 µM
[25] = RPMI 5 mM glucose + 10% dialyzed FBS, 0.00702 µM
[26] = RPMI 5 mM glucose + 10% dialyzed FBS, 0.0211 µM
[27] = RPMI 5 mM glucose + 10% dialyzed FBS, 0.0632 µM
[28] = RPMI 5 mM glucose + 10% dialyzed FBS, 0.19 µM
[29] = RPMI 5 mM glucose + 10% dialyzed FBS, 0.569 µM
[30] = RPMI 5 mM glucose + 10% dialyzed FBS, 1.71 µM
[31] = RPMI 5 mM glucose + 10% dialyzed FBS, 5.12 µM
[32] = RPMI 5 mM glucose + 10% dialyzed FBS, 15.4 µM
[33] = RPMI 5 mM glucose + 10% dialyzed FBS, 46.1 µM

SMILES | cell viability [1] [%] | cell viability [2] [%] | cell viability [3] [%] | cell viability [4] [%] | cell viability [5] [%] | cell viability [6] [%] | cell viability [7] [%] | cell viability [8] [%] | cell viability [9] [%] | cell viability [10] [%] | cell viability [11] [%] | cell viability [12] [%] | cell viability [13] [%] | cell viability [14] [%] | cell viability [15] [%] | cell viability [16] [%] | cell viability [17] [%] | cell viability [18] [%] | cell viability [19] [%] | cell viability [20] [%] | cell viability [21] [%] | cell viability [22] [%] | cell viability [23] [%] | cell viability [24] [%] | cell viability [25] [%] | cell viability [26] [%] | cell viability [27] [%] | cell viability [28] [%] | cell viability [29] [%] | cell viability [30] [%] | cell viability [31] [%] | cell viability [32] [%] | cell viability [33] [%]
CC(C)OC(=O)CCC/C=C\C[C@@H]1[C@@H](/C=C/[C@@H](O)COc2cccc(C(F)(F)F)c2)[C@H](O)C[C@@H]1O | 65.4 | 124 | 115 | 118 | 118 | 118 | 121 | 122 | 106 | 102 | 31.7 |  |  |  |  |  |  |  |  |  |  |  |  |  |  |  |  |  |  |  |  |  | 
C1Cc2[nH]nc(-c3nn[nH]n3)c2C1 | 91.4 | 101 | 113 | 114 | 107 | 104 | 128 | 128 | 120 | 116 | 100 | 112 | 122 | 119 | 128 | 125 | 137 | 129 | 163 | 136 | 145 | 140 | 115 | 129 | 125 | 127 | 141 | 162 | 145 | 141 | 149 | 144 | 162
C[C@@H]1C[C@H]2[C@@H]3\C=C(C)/C4=C/C5=C(C[C@]4(C)[C@H]3[C@@H](O)C[C@]2(C)[C@@]1(O)C(=O)COC(C)=O)C=N[N]5C6=CC=CC=C6 | 134 | 120 | 111 | 104 | 85.4 | 67.8 | 66.4 | 56.8 | 59.7 | 59.9 | 58.8 |  |  |  |  |  |  |  |  |  |  |  | 143 | 117 | 116 | 97.7 | 75 | 63.1 | 52.8 | 54.9 | 46.1 | 43.3 | 35.5
CN1C(=O)\C(=C/C(=C1/NC2=C(F)C=C(I)C=C2)C(=O)NOCCO)C | 92.4 | 107 | 106 | 91.8 | 91.7 | 78.7 | 67.8 | 67.5 | 77.2 | 70.6 | 72.9 | 97.1 | 102 | 93.9 | 99 | 76.9 | 72.7 | 82 | 86 | 84 | 70.8 | 65 | 109 | 91.8 | 98 | 78.3 | 77.7 | 60.4 | 72.3 | 68.1 | 63.2 | 59 | 67.8
COc1cc2nccc(Oc3ccc(NC(=O)Nc4ccc(F)cc4F)c(F)c3)c2cc1OC | 103 | 86 | 63.8 | 74.4 | 50.7 | 32.3 | 41.6 | 42.2 | 34.9 | 36.4 | 20 | 118 | 115 | 87.7 | 88.9 | 71.9 | 59 | 55.9 | 51.6 | 56.4 | 53.6 | 13.3 | 72.7 | 89 | 51.1 | 62.2 | 41.6 | 37 | 34.1 | 36.4 | 33.4 | 33.3 | 12.6
C[N]1C=NC=C1[C@@](N)(C2=CC=C(Cl)C=C2)C3=CC=C4N(C)C(=O)\C=C(\C5=CC=CC(=C5)Cl)C4=C3 | 112 | 126 | 111 | 103 | 65.5 | 53.1 | 50.7 | 48.5 | 49.2 | 39.8 | 28.6 | 105 | 116 | 109 | 101 | 72.2 | 43.9 | 51.7 | 43.7 | 40.6 | 33.9 | 13.6 | 105 | 102 | 97.9 | 108 | 98.5 | 71 | 65.9 | 62.8 | 55 | 49.7 | 22.3
NC(=O)c1ccc(-c2nc(-c3ccc4c(c3)OCCO4)c(-c3ccccn3)[nH]2)cc1 | 116 | 124 | 109 | 119 | 120 | 136 | 135 | 132 | 143 | 130 | 126 | 100 | 112 | 96.3 | 114 | 105 | 111 | 102 | 110 | 119 | 112 | 108 | 119 | 126 | 111 | 137 | 121 | 118 | 124 | 131 | 122 | 138 | 146
C[C@H]1CN(C[C@@H](C)O1)CC(=O)NC2=CC=C3SC4=C(CC3=C2)C=CC=C4\C5=C\C(=O)\C=C(/O5)N6CCOCC6 | 80.4 | 108 | 43 | 118 | 110 | 126 | 113 | 113 | 89.8 | 84.4 | 39.8 | 76.2 | 91.8 | 14.3 | 78.1 | 86.6 | 80.5 | 83.2 | 81.9 | 75.8 | 44.1 | 15 | 86.7 | 95.3 | 34.6 | 101 | 118 | 111 | 103 | 99.4 | 73.7 | 46.9 | 19.6
COc1nc(-c2ccc3c(c2)OCO3)n(-c2ccc(NC(=O)CSc3ccccc3)cc2)n1 | 118 | 97.1 | 106 | 112 | 114 | 103 | 117 | 98 | 110 | 98.5 | 98.9 | 113 | 104 | 117 | 102 | 107 | 108 | 94.2 | 95.5 | 95.8 | 101 | 86.7 | 96.4 | 108 | 122 | 119 | 119 | 102 | 89 | 105 | 118 | 99.7 | 82.9
FC(F)(F)c1ccc(Nc2nc3cc(Oc4ccnc(-c5ncc(C(F)(F)F)[nH]5)c4)ccc3[nH]2)cc1 | 108 | 97.7 | 112 | 116 | 121 | 117 | 118 | 121 | 106 | 82.7 | 18.4 | 120 | 114 | 117 | 113 | 125 | 117 | 100 | 120 | 114 | 80.8 | 4.03 |  |  |  |  |  |  |  |  |  |  | 
O=C(Nc1ccc(OC(F)(F)F)cc1)c1sccc1NCc1ccnc2ccccc12 | 115 | 115 | 114 | 127 | 125 | 115 | 122 | 82.3 | 47.6 | 24.8 | 16.8 |  |  |  |  |  |  |  |  |  |  |  | 122 | 117 | 127 | 135 | 125 | 136 | 130 | 99.2 | 87.8 | 24.1 | 15.8
Cc1c[nH]c(/C=C2\C(=O)Nc3ccccc32)c1CCC(=O)O | 102 | 107 | 112 | 103 | 89.8 | 90.1 | 69.7 | 51.6 | 42.6 | 26.7 | 39 | 61.2 | 83.1 | 83.6 | 64.7 | 72.7 | 49.3 | 50.6 | 34.1 | 27.6 | 28.1 | 26.6 | 107 | 105 | 99.6 | 94.7 | 90.8 | 75.8 | 67.6 | 47.1 | 33.6 | 25.7 | 46.5
C=C(C)[C@@H]1CC[C@]2(C)CC[C@]3(C)[C@H](CC[C@@H]4[C@@]5(C)CC[C@H](O)C(C)(C)[C@@H]5CC[C@]43C)[C@@H]12 | 86.4 | 103 | 101 | 91.6 | 89 | 100 | 11 | 109 | 111 | 123 | 121 | 97.5 | 107 | 112 | 103 | 104 | 113 | 10 | 110 | 135 | 126 | 124 | 81.3 | 98.5 | 104 | 99.3 | 102 | 108 | 8.47 | 111 | 101 | 90.5 | 104
CN(N=O)C(=O)N[C@H]1C(O)OC(CO)[C@@H](O)[C@@H]1O (some centres not stated) | 66.7 | 75.4 | 79.1 | 74.5 | 81.8 | 74.6 | 74 | 77.2 | 89.2 | 40.3 | 37.9 | 101 | 101 | 106 | 87.8 | 106 | 76.3 | 86.5 | 108 | 119 | 48.3 | 51.6 | 63.9 | 74 | 73.7 | 63.8 | 70.4 | 55.1 | 80.9 | 78.5 | 80.8 | 32.7 | 43.3
Cc1ccc(NC(=O)C2(c3ccc4c(c3)OC(F)(F)O4)CC2)nc1-c1cccc(C(=O)O)c1 | 106 | 87.4 | 109 | 111 | 93.5 | 13.7 | 16.4 | 16.7 | 9.88 | 9.04 | 6.17 | 87.2 | 86.6 | 91.6 | 91.5 | 62.6 | 11.1 | 10.5 | 10.5 | 8.17 | 7.53 | 5.47 | 97.9 | 98.3 | 97.7 | 107 | 71.9 | 14.9 | 13.2 | 16.6 | 9.71 | 8.66 | 6.45
CCC1=C[C@@H]2CN(C1)Cc1c([nH]c3ccccc13)[C@@](C(=O)OC)(c1cc3c(cc1OC)N(C)[C@H]1[C@@](O)(C(=O)OC)[C@H](OC(C)=O)[C@]4(CC)C=CCN5CC[C@]31[C@@H]54)C2 | 119 | 117 | 110 | 92.7 | 75.9 | 32 | 25.5 | 24.1 | 23.6 | 26.7 | 17.3 |  |  |  |  |  |  |  |  |  |  |  | 108 | 106 | 99.7 | 86.5 | 62.9 | 30 | 23.9 | 22 | 24.9 | 26.3 | 12.4
